Key:
Type in all cases: cell-based, human
[1] = tested on: hUC-MSCs; experiment: CFU-F assay of hUC-MSCs; conditions: 125 or 250 μg/mL AA2G for three days, n=3
Method: (§1) The inventors observed an effect of the material on stem cells by treating each stem cells with a material for enhancing a glutathione evaluation parameter. When hUC-MSCs were subcultured in a L-AA2G-containing medium, CFU-F, migration capacity, and an anti-inflammatory effect were observed. A CFU-F assay (n=3) was performed by treating hUC-MSCs with 125 or 250 μg/mL of AA2G for three days. As shown in FIGS. 16A and 16B, it was confirmed that, when AA2G was treated, CFU-F increased. In addition, as hUC-MSCs were treated with 125 or 250 μg/mL of AA2G for three days, PDGF-AA-induced migration capacity (n=3) was analyzed. As shown in FIGS. 17A and 17B, it was confirmed that the migration capacity was increased by AA2G treatment. In addition, the reduction in T cell proliferation, the reduction in T cell differentiation, and the promotion of Treg cell differentiation were observed by treating hUC-MSCs with 125 or 250 μg/mL of AA2G for three days. […] Meanwhile, hUC-MSCs were cultured with a glutathione precursor such as γ-glutamyl cysteine (GGC, 0.1, 0.25, and 0.5 mM). A CFU-F assay (n=3) was performed by treating hUC-MSCs with each concentration of GGC for 2 hours. […] In addition, SDF1α and PDGF-AA-induced migration capacities (n=3) were analyzed for hUC-MSCs without treatment with GGC, and SDF1α and PDGF-AA-induced migration abilities (n=3) were analyzed by treating hUC-MSCs with the increasing concentrations of GGC. STI571 was used as a PDGFR kinase inhibitor. As shown in FIGS. 20A to 20C, it was confirmed that, according to an increase in GGC treatment concentration, SDF1α- and PDGF-AA-induced migration capacities were enhanced. A CFU-F assay (n=3) was performed by treating hUC-MSCs with 0.2, 1, 2, and 4 μM ferrostatin-1 and 0.1, 0.5, 1, and 2 μM liproxstatin-1 for 24 hours.

[2] = tested on: hUC-MSCs; experiment: SDF1α- and PDGF-AA-induced migration capacity of hUC-MSCs; conditions: 125 or 250 μg/mL AA2G for three days, n=3
Method: as §1, with “mM).” for “mM). A CFU-F assay (n=3) was performed by treating hUC-MSCs with each concentration of GGC for 2 hours.”, “STI571 was used as a PDGFR kinase inhibitor. As shown in FIGS. 20A to 20C, it was confirmed that, according to an increase in GGC treatment concentration, SDF1α- and PDGF-AA-induced migration capacities were enhanced. A CFU-F assay (n=3) was performed by treating hUC-MSCs with 0.2, 1, 2, and 4 μM ferrostatin-1 and 0.1, 0.5, 1, and 2 μM liproxstatin-1 for 24 hours.” left out

[3] = tested on: hUC-MSCs; experiment: Oxidative stress resistance capacity (ORC) analysis in hUC-MSCs with RSL3; conditions: hUC-MSCs subcultured three times with AA2G 250 μg/mL; compared with naive cell group (NC)
Method: GRC refers to a value obtained by real-time monitoring of FR after living cells are treated with an oxidizing agent, as calculated by dividing a value obtained by subtracting AUC of a group treated with 0.1-100 mM N-ethylmaleimide (NEM) from FR AUC of an oxidizing agent (diamide, H2O2, etc.)-treated group by a value obtained by subtracting the AUC of NEM-treated group from AUC of the untreated control, and multiplying the resulting value by 100. The FR of the NEM-treated group is a value for increasing the sensitivity of a GRC value by treating it as the blank value of the FR of the cells of interest. […] To remove the MitoFreSH-Tracer from the medium before measurement, the medium was exchanged with fresh 10 mM HEPES-containing HBSS(Hanks' Balanced Salt Solution), and a fluorescence image was obtained using a confocal imaging system, Operetta. By comparing GSH levels quantified from control cells not treated with RSL3 or control cells before treated with RSL3, the distribution of GSH expression-changed cells was calculated. Based on the point where the distribution histogram is divided into two peaks, the cells were divided into GSH^High cells (right peak) and GSH^Low cells (left peak), and then a ratio of corresponding cells was expressed as a percentage (%). […]

Question: Which CFU-F [1] does the source give for `O=C1O[C@H]([C@@H](O)CO)C(O)=C1O[C@H]1O[C@H](CO)[C@@H](O)[C@H](O)[C@H]1O` [AA2G, ascorbic acid 2-glucoside] here?
Answer: The CFU-F was “increased”.

Question: And the PDGF-AA-induced migration capacity [2]?
Answer: The PDGF-AA-induced migration capacity was “increased”.

Question: What about the “FreSH-Tracer-based ORC (GSH^High cells)” value [3] of the same compound?
Answer: Its value is “higher”.

— patent US11499978B2, “Method for measuring quality of therapeutic cell through real-time glutathione measurement” (CELL2IN, INC., priority 2017, dated 2022)
